Measurements from patent US20120115877A1, “Facially Amphiphilic Compounds, Compositions, And Uses Thereof In Treating Cancer” (POLYMEDIX, INC., priority 2010, published 2012).

Columns and labels:
Assay type in all cases: cell-based, human
Details in all cases: 10 μM
HOP-62 = assay: NCI-60 screen, Non-Small Cell Lung Cancer
Description: (§1) Several compounds were tested at single concentrations (10 μM) against 59 different human tumor cell lines, representing leukemia, melanoma and cancers of the lung, colon, brain, ovary, breast, prostate, and kidney (see, Table 3). The human tumor cell lines of the cancer screening panel were grown in RPMI 1640 medium containing 5% fetal bovine serum and 2 mM L-glutamine. For a typical screening experiment, cells were inoculated into 96 well microtiter plates in 100 μL at plating densities ranging from 5,000 to 40,000 cells/well depending on the doubling time of individual cell lines. After cell inoculation, the microtiter plates were incubated at 37° C., 5% CO2, 95% air and 100% relative humidity for 24 hours prior to addition of the compounds.
(§2) After 24 hours, two plates of each cell line were fixed in situ with TCA, to represent a measurement of the cell population for each cell line at the time of drug addition (Tz). Compounds were solubilized in dimethyl sulfoxide at 400-fold the desired final maximum test concentration and stored frozen prior to use. At the time of drug addition, an aliquot of frozen concentrate was thawed and diluted to twice the desired final maximum test concentration with complete medium containing 50 μg/ml gentamicin. Additional four, 10-fold or ½ log serial dilutions were made to provide a total of five compound concentrations plus control. Aliquots of 100 μl of these different drug dilutions were added to the appropriate microtiter wells already containing 100 μl of medium, resulting in the required final compound concentrations.
(§3) Following drug addition, the plates were incubated for an additional 48 hours at 37° C., 5% CO2, 95% air, and 100% relative humidity. For adherent cells, the assay was terminated by the addition of cold TCA. Cells were fixed in situ by the gentle addition of 50 μl of cold 50% (w/v) TCA (final concentration, 10% TCA) and incubated for 60 minutes at 4° C. The supernatant was discarded, and the plates were washed five times with tap water and air dried. Sulforhodamine B (SRB) solution (100 μl) at 0.4% (w/v) in 1% acetic acid was added to each well, and plates were incubated for 10 minutes at room temperature. After staining, unbound dye was removed by washing five times with 1% acetic acid and the plates were air dried. Bound stain was subsequently solubilized with 10 mM trizma base, and the absorbance was read on an automated plate reader at a wavelength of 515 nm. For suspension cells, the methodology was the same except that the assay was terminated by fixing settled cells at the bottom of the wells by gently adding 50 μl of 80% TCA (final concentration, 16% TCA). Using the seven absorbance measurements (time zero, (Tz), control growth, (C), and test growth in the presence of drug at the five concentration levels (Ti)), the percentage growth was calculated at each of the compound concentrations levels. Percentage growth inhibition was calculated as:
(§4) [(Ti−Tz)/(C−Tz)]×100 for concentrations for which Ti>/=Tz
(§5) [(Ti−Tz)/Tz]×100 for concentrations for which Ti<Tz.
(§6) Three dose response parameters were calculated for each compound. Growth inhibition of 50% (GI50) was calculated from [(Ti−Tz)/(C−Tz)]×100=50, which is the compound concentration resulting in a 50% reduction in the net protein increase (as measured by SRB staining) in control cells during the compound incubation. The compound concentration resulting in total growth inhibition (TGI) was calculated from Ti=Tz. The LC50 (concentration of compound resulting in a 50% reduction in the measured protein at the end of the compound treatment as compared to that at the beginning) indicating a net loss of cells following treatment was calculated from [(Ti−Tz)/Tz]×100=−50. Values were calculated for each of these three parameters if the level of activity was reached; however, if the effect was not reached or was exceeded, the value for that parameter was expressed as greater or less than the maximum or minimum concentration tested.

NCI-H226 = assay: NCI-60 screen, Non-Small Cell Lung Cancer
Description: as §1, §2, §3, §4, §5, §6

MALME-3M = assay: NCI-60 screen, Melanoma
Description: as §1, §2, §3, §4, §5, §6

MDA-MB-435 = assay: NCI-60 screen, Melanoma
Description: as §1, §2, §3, §4, §5, §6

LOX IMVI = assay: NCI-60 screen, Melanoma
Description: as §1, §2, §3, §4, §5, §6

UACC-257 = assay: NCI-60 screen, Melanoma
Description: as §1, §2, §3, §4, §5, §6

SK-MEL-2 = assay: NCI-60 screen, Melanoma
Description: as §1, §2, §3, §4, §5, §6

SK-MEL-5 = assay: NCI-60 screen, Melanoma
Description: as §1, §2, §3, §4, §5, §6

UACC-62 = assay: NCI-60 screen, Melanoma
Description: as §1, §2, §3, §4, §5, §6

SK-MEL-28 = assay: NCI-60 screen, Melanoma
Description: as §1, §2, §3, §4, §5, §6

BT-549 = assay: NCI-60 screen, Breast Cancer
Description: as §1, §2, §3, §4, §5, §6

MCF7 = assay: NCI-60 screen, Breast Cancer
Description: as §1, §2, §3, §4, §5, §6

MDA-MB-468 = assay: NCI-60 screen, Breast Cancer
Description: as §1, §2, §3, §4, §5, §6

T-47D = assay: NCI-60 screen, Breast Cancer
Description: as §1, §2, §3, §4, §5, §6

MOLT-4 = assay: NCI-60 screen, Leukemia
Description: as §1, §2, §3, §4, §5, §6

SR = assay: NCI-60 screen, Leukemia
Description: as §1, §2, §3, §4, §5, §6

HL-60(TB) = assay: NCI-60 screen, Leukemia
Description: as §1, §2, §3, §4, §5, §6

K-562 = assay: NCI-60 screen, Leukemia
Description: as §1, §2, §3, §4, §5, §6

CCRF-CEM = assay: NCI-60 screen, Leukemia
Description: as §1, §2, §3, §4, §5, §6

COLO 205 = assay: NCI-60 screen, Colon Cancer
Description: as §1, §2, §3, §4, §5, §6

SW-620 = assay: NCI-60 screen, Colon Cancer
Description: as §1, §2, §3, §4, §5, §6

HCT-116 = assay: NCI-60 screen, Colon Cancer
Description: as §1, §2, §3, §4, §5, §6

HCT-15 = assay: NCI-60 screen, Colon Cancer
Description: as §1, §2, §3, §4, §5, §6

HT29 = assay: NCI-60 screen, Colon Cancer
Description: as §1, §2, §3, §4, §5, §6

HCC-2998 = assay: NCI-60 screen, Colon Cancer
Description: as §1, §2, §3, §4, §5, §6

KM12 = assay: NCI-60 screen, Colon Cancer
Description: as §1, §2, §3, §4, §5, §6

| Compound | Percent Growth (HOP-62) [%] | Percent Growth (NCI-H226) [%] | Percent Growth (MALME-3M) [%] | Percent Growth (MDA-MB-435) [%] | Percent Growth (LOX IMVI) [%] | Percent Growth (UACC-257) [%] | Percent Growth (SK-MEL-2) [%] | Percent Growth (SK-MEL-5) [%] | Percent Growth (UACC-62) [%] | Percent Growth (SK-MEL-28) [%] | Percent Growth (BT-549) [%] | Percent Growth (MCF7) [%] | Percent Growth (MDA-MB-468) [%] | Percent Growth (T-47D) [%] | Percent Growth (MOLT-4) [%] | Percent Growth (SR) [%] | Percent Growth (HL-60(TB)) [%] | Percent Growth (K-562) [%] | Percent Growth (CCRF-CEM) [%] | Percent Growth (COLO 205) [%] | other results |
| --- | --- | --- | --- | --- | --- | --- | --- | --- | --- | --- | --- | --- | --- | --- | --- | --- | --- | --- | --- | --- | --- |
| NCCc1cc(Br)cc(C#Cc2cccc(C#Cc3cc(Br)cc(CCN)c3)c2)c1 [Compound A] | 21.99 | 108.9 | 106.8 | −16.19 | −76.91 | 68.25 | 3.515 | 80.5 | 26.03 | 79.76 | 102 | −89.84 | −61.5 | 31.82 | −43.65 | −43.87 | 6.88 | −45.67 | −12.43 | 1.203 | Percent Growth (SW-620): −73.58%; Percent Growth (HCT-116): −45.86%; Percent Growth (HCT-15): 11.61%; Percent Growth (HT29): −89.31%; Percent Growth (HCC-2998): 54.09%; Percent Growth (KM12): −87.53% |
| N=C(N)NCCCCC(=O)Nc1cc(C(F)(F)F)cc(NC(=O)Nc2ccc(NC(=O)Nc3cc(C(F)(F)F)cc(NC(=O)CCCCNC(=N)N)c3OC3CCNC3)cc2)c1OC1CCNC1 (stereo not drawn) [Compound B] | 23.47 | 51.21 | 83.13 | 48.12 | 59.57 | 75.89 | 60.98 | 50.91 | 75.91 | 68.29 | 89.61 | 44.41 | 43.02 | 3.786 | 63.33 | 77.31 | 58.59 | 38.56 | 60.57 | 55.41 | Percent Growth (SW-620): 69.71%; Percent Growth (HCT-116): 45.1%; Percent Growth (HCT-15): 61.39%; Percent Growth (HT29): 59.66%; Percent Growth (HCC-2998): 75.82%; Percent Growth (KM12): 24.16% |
| N=C(N)NCCCCC(=O)Nc1cc(C(F)(F)F)cc(NC(=O)c2cc(C(=O)Nc3cc(C(F)(F)F)cc(NC(=O)CCCCNC(=N)N)c3SCCN)ncn2)c1SCCN [Compound C] | 37.78 | 63.82 | 63.62 | 35.56 | 50.64 | 61.31 | 54.29 | 34.55 | 55.93 | 61.39 | 96.67 | 10.27 | −53.05 | 14.59 | 45.62 | 28.12 | 30.11 | 4.995 | 24.46 | −73.2 | Percent Growth (SW-620): 34.39%; Percent Growth (HCT-116): 37.88%; Percent Growth (HCT-15): 33.27%; Percent Growth (HT29): 17.03%; Percent Growth (HCC-2998): 54.2%; Percent Growth (KM12): −39.48% |
| NCCCc1cccc(-c2ccc3sc4ccc(-c5cccc(CCCN)c5)cc4c3c2)c1 [Compound D] | 90.64 | 110.1 | 134.1 | 81.14 | 26.77 | 100 | 81 | 100.8 | 88.44 | 99.21 | 105.8 | −59.63 | 17.63 | 90.75 | 2.072 | 0 | 68.33 | 12.99 | 5.12 | 31.52 | Percent Growth (SW-620): 15.48%; Percent Growth (HCT-116): 0.5127%; Percent Growth (HCT-15): 88.15%; Percent Growth (HT29): 21.31%; Percent Growth (HCC-2998): 93.27%; Percent Growth (KM12): 42.09% |
| c1cc(-c2ccc3sc4ccc(-c5ccnc(N6CCNCC6)c5)cc4c3c2)cc(N2CCNCC2)n1 [Compound E] | −80.18 | 39.89 | −4.679 | −84.03 | −80.29 | −70.37 | −73.48 | 63.85 | −41.07 | −51.91 | 98.88 | −89.85 | −82.28 | −12.27 | −75.28 | −60.7 | −24.59 | −70.89 | −64.03 | −59.52 | Percent Growth (SW-620): −87.3%; Percent Growth (HCT-116): −48.52%; Percent Growth (HCT-15): −54.01%; Percent Growth (HT29): −87.5%; Percent Growth (HCC-2998): −9.443%; Percent Growth (KM12): −87.84% |
| NCCSc1cc(SCCN)c(C(F)(F)F)cc1NC(=O)c1cc(C(=O)Nc2cc(C(F)(F)F)c(SCCN)cc2SCCN)ncn1 [Compound F] | 29.35 | 66.85 | 80.15 | 70.62 | 6.66 | 76.46 | 46.77 | 62.3 | 51.23 | 83.94 | 101.8 | −59.97 | −78.28 | 34.11 | 82.85 | 51.7 | 82.57 | 96.34 | 99.09 | 126 | Percent Growth (SW-620): 18.57%; Percent Growth (HCT-116): 32.41%; Percent Growth (HCT-15): 62.31%; Percent Growth (HT29): 56.34%; Percent Growth (HCC-2998): 31.93%; Percent Growth (KM12): 7.63% |
